# In PubChem BioAssay AID1645865 (Buhrlage Lab, Dana-Farber Cancer Institute and Novartis …, 2021):
# Active and inactive are the calls of the source.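 The calls were made as follows: active = maximal inhibition of the USP30 enzyme reaching 30% or more across the dose series; inactive = the rest.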
# Biological target: Ubiquitin carboxyl-terminal hydrolase 30 (Homo sapiens) (UniProt Q70CQ3)
# Test: ubiquitin-specific protease 30 DUB inhibitors, concentration-effect, biochemical, validation of primary actives (AID 1645865)
# Settings: purified USP30, Ub-rhodamine cleavage, fluorescence, 2 h
# Ubiquitin carboxyl-terminal hydrolase 30 (Homo sapiens), sequence (Q70CQ3 whole entry, looked up): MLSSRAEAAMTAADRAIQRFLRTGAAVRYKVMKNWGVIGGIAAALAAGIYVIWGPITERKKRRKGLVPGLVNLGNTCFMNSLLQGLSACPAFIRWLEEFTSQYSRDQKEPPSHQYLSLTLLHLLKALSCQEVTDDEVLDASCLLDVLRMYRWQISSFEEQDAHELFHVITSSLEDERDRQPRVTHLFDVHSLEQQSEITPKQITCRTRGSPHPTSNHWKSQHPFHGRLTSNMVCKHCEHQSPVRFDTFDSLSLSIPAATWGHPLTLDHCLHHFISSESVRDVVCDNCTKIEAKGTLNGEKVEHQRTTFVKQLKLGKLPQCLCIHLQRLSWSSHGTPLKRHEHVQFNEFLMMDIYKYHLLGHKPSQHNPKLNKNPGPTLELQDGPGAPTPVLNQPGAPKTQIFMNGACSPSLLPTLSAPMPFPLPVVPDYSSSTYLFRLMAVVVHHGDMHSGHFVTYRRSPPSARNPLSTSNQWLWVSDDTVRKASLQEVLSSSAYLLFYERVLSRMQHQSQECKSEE
row,Compound,IC50
1,O=C(CSc1ncnc2c1sc1cccc(F)c12)N1CCCCCC1,> 50 µM (inactive)
2,O=c1c2ccccc2c(-c2nc(-c3ccncc3)no2)cn1-c1ccccc1,2.54 µM
3,O=C(Nc1ccccc1)c1nc(-c2cn(Cc3ccc(F)cc3)nn2)no1,28.6 µM
4,Cc1ccc2[nH]c(=O)c(-c3nc4ccc(C)cn4c3NCc3ccc(F)cc3)cc2c1,2.1 µM
5,O=c1c(Nc2cccc(F)c2)nc2ccncc2n1Cc1ccccc1,26.4 µM
6,COc1ccc(C(=O)NCC(c2ccc3c(c2)CCCN3C)N2CCCC2)cc1 (configuration not stated),> 50 µM (inactive)
7,c1csc(CCN2CCc3nc4cccnc4cc3C2)c1,> 50 µM (inactive)
8,CC1CCCN1C(=O)c1ccn(-c2ccc3ccc(-c4cccnc4)cn23)n1 (configuration not stated),> 50 µM (inactive)
9,O=C(NCc1nc(-c2ccc3c(c2)[nH]c(=O)n3C2CCCC2)no1)c1ccccc1,> 50 µM (inactive)
10,Fc1ccc(Cc2nc(-c3ccc4nncn4c3)no2)cc1,> 50 µM (inactive)
11,COc1ccc(NC2c3ccccc3C(=O)N2c2ccccn2)cc1 (configuration not stated),> 50 µM (inactive)
12,COc1ccccc1/C=C/C(=O)Nc1nc2n(n1)C(c1ccc(Cl)cc1)CC(=O)N2 (configuration not stated),> 50 µM (inactive)
13,O=S(=O)(c1cccc(F)c1)N1CCN(c2nnnn2-c2ccccc2)CC1,31.4 µM
14,CCOc1ccc(-c2noc(-c3nn(-c4cccc(OC)c4)ccc3=O)n2)cc1,3.45 µM
15,COC(=O)c1ccc2c(=O)n(CCCCCC(=O)NCCc3ccc(S(N)(=O)=O)cc3)c(=O)[nH]c2c1,6.13 µM
16,COCCCNC(=O)c1ccc(Cn2c(=O)c3ccccc3n(CC(=O)NC3CCCCC3)c2=O)cc1,24.8 µM
17,CC1=C(c2ccc(F)cc2)S(=O)(=O)NC1=NCC(=O)Nc1ccc(F)cc1F,23.4 µM
18,O=C(NC1CCCCC1)c1cc2c(cn1)[nH]c1ccccc12,> 50 µM (inactive)
19,c1ccc2c(c1)ccc1nnc(-c3ccc4c(c3)OCO4)n12,> 50 µM (inactive)
20,Cc1nc(C(=O)N[C@@H](C)C(=O)NCc2ccc3c(c2)OCO3)cc2c1[nH]c1ccccc12,> 50 µM (inactive)
21,Cn1c(=O)c2c(nc3n(-c4ccccc4F)c(-c4ccccc4)cn23)n(C)c1=O,> 50 µM (inactive)
22,CCOC(=O)c1cc2c(ccn2C)n1CC(=O)N1CCC(C)CC1,> 50 µM (inactive)
23,COCCNC(=O)c1ccn(-c2ccc3ccc(-c4cnn(C)c4)cn23)n1,> 50 µM (inactive)

row,Compound,IC50
1,Cc1ccc(C)c(Nc2cc(C)nc3nc(-c4ccco4)nn23)c1,> 50 µM (inactive)
2,CC(=O)N1CCc2cc(S(=O)(=O)NC(Cc3ccccc3)C(=O)Nc3cccc(Cl)c3C)ccc21 (configuration not stated),3.47 µM
3,COc1ccc(OC)c2c(C)cc(N3CCN(S(=O)(=O)c4ccc5c(c4)CCCN5S(C)(=O)=O)CC3)nc12,20.9 µM
4,CC[C@@]1(O)C[C@H](OC2CC(N(C)C)C(OC3CC(O)C(OC4CCC(=O)C(C)O4)C(C)O3)C(C)O2)c2c(cc3c(c2O)C(=O)c2c(O)ccc(O)c2C3=O)[C@H]1C(=O)OC (some centres not stated),> 50 µM (inactive)
5,COc1cccc(C(=O)NCC(=O)Nc2nc3ccccc3[nH]2)c1,34.3 µM
6,O=C(O)c1ccccc1C(=O)Nc1ccc(SC(C(=O)Nc2ccccc2)c2ccccc2)cc1 (configuration not stated),> 50 µM (inactive)
7,Cn1nccc1C(=O)N1CCCCC1c1ncc(Cc2ccc(Cl)cc2)o1 (configuration not stated),> 50 µM (inactive)
8,COc1cc(Cl)ccc1Nc1ncc(C(=O)Nc2cc(OC)c(OC)c(OC)c2)c2ccccc12,< 0.05 µM
9,COc1ccc(CNC(=O)c2ccccc2N2C(=O)N3CCc4c([nH]c5ccccc45)[C@@]3(C)C2=O)cc1,27.3 µM
10,Cc1ccc(C)c(Cn2nnc3c(=O)[nH]c(C4CCN(S(=O)(=O)c5ccc(S(=O)(=O)NC6CC6)cc5)CC4)nc32)c1,30.4 µM
11,O=C(CSc1ccc2nnc(-c3ccccc3)n2n1)N1CCCc2ccccc21,10.7 µM
12,O=C(CCCn1c(=O)c2ccccc2n(CC(=O)NCc2ccccc2Cl)c1=O)NCc1ccc2c(c1)OCO2,1.69 µM
13,Cn1c2ccccc2c2ncn(Cc3ccc(F)cc3)c(=O)c21,27.3 µM
14,COc1ccc(CCNC(=O)c2cc(C3CC3)nc3c2cnn3C(C)C)cc1,> 50 µM (inactive)
15,COc1cccc(NC(=O)c2ccc(-c3csc(C)n3)cc2)c1,> 50 µM (inactive)
16,Cc1sc(-c2cccnc2)nc1OC(=O)c1ccc(Cl)c(Cl)c1,> 50 µM (inactive)
17,Cc1ccc2c(=O)c(C(=O)Nc3ccccc3)cn(CC(=O)NC3CCCCC3)c2n1,< 0.05 µM
18,COc1ccc(-c2cc(C(=O)NC3CCCCCC3)[nH]n2)cc1S(=O)(=O)N(C)C,22.9 µM
19,N#Cc1ccccc1Cn1c(=O)n(Cc2ccco2)c(=O)c2ccccc21,> 50 µM (inactive)
20,Cc1cccc(NC(=O)Nc2nnc(CC(=O)NCc3ccccc3)s2)c1,6.01 µM
21,COc1ccccc1CNC(=O)Nc1cccc2ccccc12,25.9 µM
22,CC1(C(=O)NCc2ccccc2)Cn2c(cc3ccccc32)C(=O)N1Cc1ccccc1 (configuration not stated),> 50 µM (inactive)
23,COc1ccc(C)cc1NC(=O)Cc1csc(NC(=O)c2ccc(=O)[nH]c2)n1,> 50 µM (inactive)

row,Compound,IC50
1,COc1cccc2c1NC(=O)C21CCN(C(=O)Nc2cccc3ccccc23)CC1,> 50 µM (inactive)
2,COc1ccc(NC(=O)c2nnn(-c3ccccc3C)c2C)cc1OC,> 50 µM (inactive)
3,O=C(COc1ccc(Cl)cc1)Nc1noc(-c2ccccc2)n1,25.8 µM
4,CC(=O)c1cccc(NC(=O)c2ccc3[nH]c4c(c3c2)CC(C)CC4)c1 (configuration not stated),> 50 µM (inactive)
5,c1ccc(CCN2CCc3nc4cccnc4cc3C2)nc1,> 50 µM (inactive)
6,CCOC(=O)c1ccc(S(=O)(=O)N2CCC(C(=O)OC(C)C(=O)Nc3cccc([N+](=O)[O-])c3)CC2)cc1 (configuration not stated),2.51 µM
7,COc1ccc(NC(=O)c2nnn(-c3ccccc3)c2C)cc1OC,> 50 µM (inactive)
8,CC(C)c1ccc(C(C(=O)NC2CCCCC2)N(C(=O)c2cnccn2)c2cccc(F)c2)cc1 (configuration not stated),22.9 µM
9,Cc1cccc(NC(=O)c2nn(C)c3ccccc3c2=O)c1,24.6 µM
10,CCOC(=O)c1ccc(NC(=O)Cn2c(=O)n(CC(=O)NCCc3ccc(OC)c(OC)c3)c(=O)c3sccc32)cc1,1.57 µM
11,C/C1=C/CC(O)/C=C/C(C)C(O)C(C)/C=C(\C)C(=O)c2c(O)c(C)cc3c2C(=O)C(Cl)=C(NC(=O)\C=C/C=C/C=C\C(C)C(O)CC1=O)C3=O (configuration not stated),> 50 µM (inactive)
12,COc1cccc2cc(C(=O)Nc3ccc4c(c3)OCCO4)oc12,> 50 µM (inactive)
13,O=C(NCCCN1CCc2ccccc2C1)c1cc2c(s1)CS(=O)(=O)C2,> 50 µM (inactive)
14,COc1ccc2nc(NC(=O)C(CC(C)C)NS(=O)(=O)c3ccc4c(c3)CCN4C(C)=O)sc2c1 (configuration not stated),31.1 µM
15,COc1cccc(-n2nnc(C(=O)Nc3ccc(C)c(C)c3)c2C)c1,> 50 µM (inactive)
16,CNC(=O)c1c2n(c3ncccc13)CCN(S(=O)(=O)c1ccc(-c3ccccc3)cc1)C2,3.95 µM
17,O=c1[nH]c(C2CCN(S(=O)(=O)c3ccc(S(=O)(=O)NC4CCCC4)cc3)CC2)nc2c1nnn2Cc1cccc(Cl)c1,> 50 µM (inactive)
18,O=C(COc1ccccc1-c1nnc(-c2ccccc2)o1)Nc1ccc(F)cc1F,2.16 µM
19,COc1ccc(C)cc1NC(=O)C(NS(=O)(=O)c1ccc2c(c1)CCN2C(C)=O)C(C)C (configuration not stated),> 50 µM (inactive)
20,Cc1c(C)n(-c2ccccc2)c2ncn(CC(=O)NCCCc3ccccc3)c(=O)c12,44.9 µM
21,N#Cc1ccc(-c2ccc(OCC(=O)Nc3ccc4c(c3)OCO4)cc2)cc1,3.89 µM
